Data as given in ChEMBL document CHEMBL1142918, “Carbonic anhydrase and matrix metalloproteinase inhibitors. Inhibition of human tumor-associated isozymes IX and cytosolic isozyme I and II with sulfonylated hydroxamates” (Bioorg Med Chem, 2007).

Key:
Carbonic anhydrase 2 = Carbonic anhydrase 2 (Homo sapiens, UniProt P00918)
Description: Inhibition of human recombinant carbonic anhydrase 2 by CO2 hydration method

Carbonic anhydrase 9 = Carbonic anhydrase 9 (Homo sapiens, UniProt Q16790)
Description: Inhibition of human recombinant carbonic anhydrase 9 by CO2 hydration method

Carbonic anhydrase 1 = Carbonic anhydrase 1 (Homo sapiens, UniProt P00915)
Description: Inhibition of human recombinant carbonic anhydrase 1 by CO2 hydration method

[1] = biological target: 72 kDa type IV collagenase (Homo sapiens, UniProt P08253)
Sequence of 72 kDa type IV collagenase (P08253 whole entry): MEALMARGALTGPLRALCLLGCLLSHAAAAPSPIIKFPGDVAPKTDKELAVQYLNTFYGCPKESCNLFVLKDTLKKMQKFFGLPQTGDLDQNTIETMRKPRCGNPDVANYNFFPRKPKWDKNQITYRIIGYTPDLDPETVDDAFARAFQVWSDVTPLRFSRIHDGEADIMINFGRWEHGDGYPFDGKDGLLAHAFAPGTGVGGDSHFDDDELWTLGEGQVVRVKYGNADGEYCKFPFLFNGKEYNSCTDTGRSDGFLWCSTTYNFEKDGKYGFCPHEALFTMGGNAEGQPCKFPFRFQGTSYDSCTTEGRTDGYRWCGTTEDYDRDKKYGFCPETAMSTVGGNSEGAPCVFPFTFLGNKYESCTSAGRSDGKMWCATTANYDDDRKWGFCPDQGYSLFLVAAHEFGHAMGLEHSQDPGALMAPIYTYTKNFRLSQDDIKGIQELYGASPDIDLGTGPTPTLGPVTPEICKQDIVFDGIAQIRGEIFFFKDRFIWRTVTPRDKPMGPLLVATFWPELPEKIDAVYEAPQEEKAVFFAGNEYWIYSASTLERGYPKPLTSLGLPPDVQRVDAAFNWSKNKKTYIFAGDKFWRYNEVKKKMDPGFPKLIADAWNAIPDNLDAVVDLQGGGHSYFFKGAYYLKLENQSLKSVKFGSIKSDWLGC
Description: Inhibition of human recombinant MMP2 expressed in mouse myeloma cells

[2] = biological target: Matrix metalloproteinase-9 (Homo sapiens, UniProt P14780)
Sequence of Matrix metalloproteinase-9 (P14780 whole entry): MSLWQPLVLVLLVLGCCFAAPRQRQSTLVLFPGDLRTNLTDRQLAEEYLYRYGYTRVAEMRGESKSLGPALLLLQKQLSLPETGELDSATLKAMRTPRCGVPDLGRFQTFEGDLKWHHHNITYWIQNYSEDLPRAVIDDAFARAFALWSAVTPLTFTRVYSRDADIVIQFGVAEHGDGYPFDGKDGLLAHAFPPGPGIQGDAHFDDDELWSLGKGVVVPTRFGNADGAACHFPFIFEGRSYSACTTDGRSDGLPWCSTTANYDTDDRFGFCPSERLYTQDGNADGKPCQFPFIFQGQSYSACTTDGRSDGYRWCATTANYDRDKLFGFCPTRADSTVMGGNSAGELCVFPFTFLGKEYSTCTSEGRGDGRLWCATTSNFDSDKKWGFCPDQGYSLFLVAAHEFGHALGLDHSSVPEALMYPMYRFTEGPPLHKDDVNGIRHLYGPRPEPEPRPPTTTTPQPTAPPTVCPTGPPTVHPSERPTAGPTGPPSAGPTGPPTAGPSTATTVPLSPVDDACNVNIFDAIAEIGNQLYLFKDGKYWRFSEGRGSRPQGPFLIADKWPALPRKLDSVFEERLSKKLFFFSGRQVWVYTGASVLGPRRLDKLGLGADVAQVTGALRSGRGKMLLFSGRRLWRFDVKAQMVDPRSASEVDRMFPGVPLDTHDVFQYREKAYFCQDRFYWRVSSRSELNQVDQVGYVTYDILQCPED
Description: Inhibition of human recombinant MMP9 expressed in mouse myeloma cells

Sequence of Carbonic anhydrase 1 (P00915 whole entry): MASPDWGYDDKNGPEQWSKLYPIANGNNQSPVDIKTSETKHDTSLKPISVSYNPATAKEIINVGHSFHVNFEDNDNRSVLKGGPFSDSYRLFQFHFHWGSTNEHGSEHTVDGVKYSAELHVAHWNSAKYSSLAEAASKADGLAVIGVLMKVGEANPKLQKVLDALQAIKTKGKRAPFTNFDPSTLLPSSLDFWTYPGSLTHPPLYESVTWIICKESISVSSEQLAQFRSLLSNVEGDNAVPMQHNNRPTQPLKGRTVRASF

SMILES | Ki (Carbonic anhydrase 2) [µM] | Ki (Carbonic anhydrase 9) [µM] | Ki (Carbonic anhydrase 1) [µM] | IC50 [1] [µM] | IC50 [2] [µM]
CCC(C)C(NOCc1ccccc1)C(=O)NO (stereo not drawn) | 267 | 7.1 | 435 | 151 | 352
CCC(C)ON(C(C(=O)NO)C(C)C)S(=O)(=O)c1ccc(OC)cc1 (stereo not drawn) | 9.6 | 9.2 | 9.7 | 0.73 | 0.286
COc1ccc(S(=O)(=O)N(CC(=O)NO)OC2C3CC4CC(C3)CC2C4)cc1 (stereo not drawn) | 0.096 | 7.8 | 0.9 | 1.98 | 2
COc1ccc(S(=O)(=O)N(CC(=O)NO)OCc2ccc(OCc3ccccc3)cc2)cc1 | 0.095 | 8.7 | 5.9 | 2.1 | 1.83
CCON(CC(=O)NO)S(=O)(=O)c1ccc(OC)cc1 | 8.7 | 9 | 8.91 | 9.6 | 2.2
COc1ccc(S(=O)(=O)N(Cc2cccnc2)[C@@H](C(=O)NO)C(C)C)cc1 [CGS-27023A] | 8.6 | 7.8 | 281 |  | 
O=C(CNOCc1ccccc1)NO | 94 | 6.7 | 490 | 94 | 256
COc1ccc(S(=O)(=O)N(CC(=O)NO)OCc2ccccc2)cc1 | 0.096 | 7.5 | 0.88 | 1.06 | 0.87

Second part, the compound after the results:

Ki (Carbonic anhydrase 2) [µM] | Ki (Carbonic anhydrase 9) [µM] | Ki (Carbonic anhydrase 1) [µM] | IC50 [1] [µM] | IC50 [2] [µM] | SMILES
6.1 | 6.9 | 10.2 | 81.8 | 125 | CCCCC(NOCc1ccc(Cl)cc1)C(=O)NO (stereo not drawn)
7.8 | 7.6 | 520 | 33.7 | 81.5 | CCCCC(NOCc1ccccc1)C(=O)NO (stereo not drawn)
4.2 | 9.3 | 156 | 1.5 | 0.33 | COc1ccc(S(=O)(=O)N(CC(=O)NO)OCc2ccc(Cl)cc2)cc1
0.091 | 9.5 | 4.1 | 4.9 | 3.4 | COc1ccc(S(=O)(=O)N(CC(=O)NO)OC(C)C)cc1
0.094 | 9.3 | 9 | 0.66 | 0.37 | COc1ccc(S(=O)(=O)N(OC(C)C)C(C(=O)NO)C(C)C)cc1 (stereo not drawn)
4.8 | 8.8 | 10 | 137 | 261 | O=C(CNOCc1ccc(Cl)cc1)NO
0.097 | 7.4 | 0.89 | 30 | 33 | CCCCCCCCCCCCCCON(CC(=O)NO)S(=O)(=O)c1ccc(OC)cc1
4.7 | 9.2 | 9.8 | 68 | 141 | CC(NOCc1ccc(Cl)cc1)C(=O)NO (stereo not drawn)
